Common to all, as to type: cell-based
One assay relates to A375. Put plainly: Cell viability assay (CellTiterGlo), A375. Conditions: Homo sapiens, A-375; A375, origin Skin; 72 h. As for the experimental part:
(§1) The test compounds and bortezomib (positive control) were solved in DMSO as 5 mM solution, which was aliquoted, frozen at −20° C. and thawed just prior addition by nanodrop dispensing. Compound treatment of cells started one day after seeding with a final DMSO concentration of 0.1% and was generally performed by nanodrop-dispensing using a Tecan Dispenser. 0.1% DMSO (solvent) and Staurosporine (1.0E-05 M) served as high control (100% viability) and low control (0% viability), respectively.
(§2) Cells were cultured in different media. For the assays, cells were seeded in white cell culture-treated flat and clear bottom multiwell plates and incubated at 37° C. before the compound was added. After incubation for 72 h at 37° C. at 5% or 10% CO2 dependent on the medium, cell plates were equilibrated to room temperature for one hour, CellTiterGlo reagent (Promega) was added and luminescence was measured ap-proximately an hour later using a luminometer.
(§3) Raw data were converted into percent cell viability relative to the high and low control, which were set to 100% and 0%, respectively. IC50 calculation was performed using GraphPad Prism software with a variable slope sigmoidal response fitting model using 0% viability as bottom constraint and 100% viability as top constraint.

Another assay concerns NCI-H2286. Put plainly: Cell viability assay (CellTiterGlo), NCI-H2286. The note with it: Homo sapiens; NCI-H2286, origin NSCLC; 72 h. As for the experimental part:
as §1, §2, §3

For a further assay, the system named is MV4-11. Put plainly: Cell viability assay (CellTiterGlo), MV4-11. The note with it: Homo sapiens; MV4-11, origin AML; 72 h. As for the experimental part: as §1, §2, §3
(In general: ATP-based viability assays read luminescence as a measure of living cells.)

For the next assay, the system named is DU-145. Put plainly: Cell viability assay (CellTiterGlo), DU-145. Conditions: Homo sapiens; DU-145, origin Prostate; 72 h. As for the experimental part:
as §1, §2, §3

A further assay relates to H460. Put plainly: Cell viability assay (CellTiterGlo), H460. Conditions: Homo sapiens, NCI-H460; H460, origin NSCLC; 72 h. As for the experimental part: as §1, §2, §3

For 1 molecule, IC50 results are on record in patent US20220281910A1, “DINUCLEOTIDE COMPOUNDS FOR TREATING CANCERS AND MEDICAL USES THEREOF” (PINOTBIO, INC., priority 2019, published 2022).

For `CC(C)C[C@H](NC(=O)[C@H](Cc1ccccc1)NC(=O)c1cnccn1)B(O)O` [Bortezomib, bortezomib], the IC50 (as a rule, the concentration needed to halve the response being measured) was determined as 8.5 nM with A375; 6.6 nM with NCI-H2286; 3.8 nM in the assay with MV4-11; 11 nM in the assay with DU-145; 16 nM with H460.
